From patent US20180289678A1, “PHARMACEUTICAL COMPOSITION, PHARMACEUTICAL DOSAGE FORM, PROCESS FOR THEIR PREPARATION, METHODS FOR TREATING AND USES THEREOF” (Boehringer Ingelheim International GmbH, priority 2009, published 2018)
Where two headings read alike, the source gives them in different places.

Assay: Study .1: single dose study in healthy volunteers, pharmacokinetic parameters
Type: in vivo, human
Settings: Study .1, fasted
Procedure: 5. Pharmacokinetic Parameters
The pharmacokinetic parameters of pharmaceutical compositions and pharmaceutical dosage forms are assessed in healthy volunteer and patient populations. In the studies shown below, the participants fasted on the day of sampling, unless as otherwise stated (see for example study .3). The active substance in the studies below is the compound (I.9), preferably in the crystalline form (I.9X), and the dose of active ingredient is indicated in mg.
For the quantification of plasma concentrations of the active ingredient, 2.7 mL of blood was collected and transferred into an EDTA (ethylendiaminetetraacetic acid)-anticoagulant blood drawing tube. The EDTA-anticoagulated blood samples were centrifuged immediately after collection. Centrifugation lasted for about 10 minutes (at about 2,000×gf to 4,000×gf) at 4-8° C. or within 30 minutes while stored on ice. Concentrations of active substance in EDTA human plasma samples were quantitated using a HPLC/MS/MS method. The assay method comprised a solid phase supported liquid-liquid extraction of human plasma coupled with HPLC/MS/MS determination of the extracted samples. The HPLC/MS/MS assay was validated for the range of 1.11 to 1110 nM in human plasma.
Study .1: Single dose study in a healthy volunteer population of N=72. Healthy volunteers were administered tablets as described in Example 10 (section Examples of formulations).
AUC0-inf:area under the concentration-time curve of the analyte in plasma over the time interval from 0 extrapolated to infinity.
Cmax: maximum concentration of the analyte in plasma.
Tmax: time from dosing to maximum concentration.

AUC0-inf Max (2.5 mg single dose): 0.448 µM·h
AUC0-inf Min (2.5 mg single dose): 0.336 µM·h
AUC0-inf,norm Max (2.5 mg single dose): 179 nmol·h/L/mg
AUC0-inf,norm Median (2.5 mg single dose): 159 nmol·h/L/mg
AUC0-inf,norm Min (2.5 mg single dose): 134 nmol·h/L/mg
AUC0-inf,norm gMean (2.5 mg single dose): 158 nmol·h/L/mg
Cmax,norm Max (2.5 mg single dose): 24 nmol/L/mg
Cmax,norm Median (2.5 mg single dose): 22 nmol/L/mg
Cmax,norm Min (2.5 mg single dose): 17 nmol/L/mg
Cmax,norm gMean (2.5 mg single dose): 21 nmol/L/mg
tmax Max (2.5 mg single dose): 2.98 h
tmax Min (2.5 mg single dose): 0.983 h
Cmax (2.5 mg single dose, read-out: Cmax Max): 60.8 nM
Cmax (2.5 mg single dose, read-out: Cmax Min): 42.8 nM
AUC0-inf Max (10 mg single dose): 2.18 µM·h
AUC0-inf Min (10 mg single dose): 1.17 µM·h
AUC0-inf,norm Max (10 mg single dose): 218 nmol·h/L/mg
AUC0-inf,norm Median (10 mg single dose): 178 nmol·h/L/mg
AUC0-inf,norm Min (10 mg single dose): 117 nmol·h/L/mg
AUC0-inf,norm gMean (10 mg single dose): 169 nmol·h/L/mg
Cmax,norm Max (10 mg single dose): 27 nmol/L/mg
Cmax,norm Median (10 mg single dose): 24 nmol/L/mg
Cmax,norm Min (10 mg single dose): 14 nmol/L/mg
Cmax,norm gMean (10 mg single dose): 22 nmol/L/mg
tmax Max (10 mg single dose): 2.03 h
tmax Min (10 mg single dose): 0.983 h
Cmax (10 mg single dose, read-out: Cmax Max): 268 nM
Cmax (10 mg single dose, read-out: Cmax Min): 143 nM
AUC0-inf Max (25 mg single dose): 4.91 µM·h
AUC0-inf Min (25 mg single dose): 2.66 µM·h
AUC0-inf,norm Max (25 mg single dose): 196 nmol·h/L/mg
AUC0-inf,norm Median (25 mg single dose): 159 nmol·h/L/mg
AUC0-inf,norm Min (25 mg single dose): 106 nmol·h/L/mg
AUC0-inf,norm gMean (25 mg single dose): 150 nmol·h/L/mg
Cmax,norm Max (25 mg single dose): 27 nmol/L/mg
Cmax,norm Median (25 mg single dose): 21 nmol/L/mg
Cmax,norm Min (25 mg single dose): 13 nmol/L/mg
Cmax,norm gMean (25 mg single dose): 20 nmol/L/mg
tmax Max (25 mg single dose): 3.02 h
tmax Min (25 mg single dose): 1.00 h
Cmax (25 mg single dose, read-out: Cmax Max): 678 nM
Cmax (25 mg single dose, read-out: Cmax Min): 334 nM
AUC0-inf Max (50 mg single dose): 11.5 µM·h
AUC0-inf Min (50 mg single dose): 7.27 µM·h
AUC0-inf,norm Max (50 mg single dose): 230 nmol·h/L/mg
AUC0-inf,norm Median (50 mg single dose): 166 nmol·h/L/mg
AUC0-inf,norm Min (50 mg single dose): 145 nmol·h/L/mg
AUC0-inf,norm gMean (50 mg single dose): 169 nmol·h/L/mg
Cmax,norm Max (50 mg single dose): 29 nmol/L/mg
Cmax,norm Median (50 mg single dose): 22 nmol/L/mg
Cmax,norm Min (50 mg single dose): 14 nmol/L/mg
Cmax,norm gMean (50 mg single dose): 22 nmol/L/mg
tmax Max (50 mg single dose): 3.00 h
tmax Min (50 mg single dose): 0.750 h
Cmax (50 mg single dose, read-out: Cmax Max): 1450 nM
AUC(0-inf) (human, plasma, oral, 2.5 mg, 2.5 mg single dose, read-out: AUC0-inf Mean): 0.396 µM·h
AUC(0-inf) (human, plasma, oral, 2.5 mg, 2.5 mg single dose, read-out: AUC0-inf Median): 0.398 µM·h
AUC(0-inf) (human, plasma, oral, 2.5 mg, 2.5 mg single dose, read-out: AUC0-inf gMean): 0.394 µM·h
Cmax (human, plasma, oral, 2.5 mg, 2.5 mg single dose, read-out: Cmax Mean): 53.2 nM
Cmax (human, plasma, oral, 2.5 mg, 2.5 mg single dose, read-out: Cmax Median): 55 nM
Cmax (human, plasma, oral, 2.5 mg, 2.5 mg single dose, read-out: Cmax gMean): 52.9 nM
Tmax (human, plasma, oral, 2.5 mg, 2.5 mg single dose, read-out: tmax Mean): 1.83 h
Tmax (human, plasma, oral, 2.5 mg, 2.5 mg single dose, read-out: tmax Median): 1.75 h
Tmax (human, plasma, oral, 2.5 mg, 2.5 mg single dose, read-out: tmax gMean): 1.72 h
AUC(0-inf) (human, plasma, oral, 10 mg, 10 mg single dose, read-out: AUC0-inf Mean): 1.73 µM·h
AUC(0-inf) (human, plasma, oral, 10 mg, 10 mg single dose, read-out: AUC0-inf Median): 1.78 µM·h
AUC(0-inf) (human, plasma, oral, 10 mg, 10 mg single dose, read-out: AUC0-inf gMean): 1.69 µM·h
Cmax (human, plasma, oral, 10 mg, 10 mg single dose, read-out: Cmax Mean): 226 nM
Cmax (human, plasma, oral, 10 mg, 10 mg single dose, read-out: Cmax Median): 239 nM
Cmax (human, plasma, oral, 10 mg, 10 mg single dose, read-out: Cmax gMean): 221 nM
Tmax (human, plasma, oral, 10 mg, 10 mg single dose, read-out: tmax Mean): 1.42 h
Tmax (human, plasma, oral, 10 mg, 10 mg single dose, read-out: tmax Median): 1.5 h
Tmax (human, plasma, oral, 10 mg, 10 mg single dose, read-out: tmax gMean): 1.38 h
AUC(0-inf) (human, plasma, oral, 25 mg, 25 mg single dose, read-out: AUC0-inf Mean): 3.83 µM·h
AUC(0-inf) (human, plasma, oral, 25 mg, 25 mg single dose, read-out: AUC0-inf Median): 3.98 µM·h
AUC(0-inf) (human, plasma, oral, 25 mg, 25 mg single dose, read-out: AUC0-inf gMean): 3.75 µM·h
Cmax (human, plasma, oral, 25 mg, 25 mg single dose, read-out: Cmax Mean): 505 nM
Cmax (human, plasma, oral, 25 mg, 25 mg single dose, read-out: Cmax Median): 520 nM
Cmax (human, plasma, oral, 25 mg, 25 mg single dose, read-out: Cmax gMean): 490 nM
Tmax (human, plasma, oral, 25 mg, 25 mg single dose, read-out: tmax Mean): 2.19 h
Tmax (human, plasma, oral, 25 mg, 25 mg single dose, read-out: tmax Median): 2.05 h
Tmax (human, plasma, oral, 25 mg, 25 mg single dose, read-out: tmax gMean): 2.06 h
AUC(0-inf) (human, plasma, oral, 50 mg, 50 mg single dose, read-out: AUC0-inf Mean): 8.58 µM·h
AUC(0-inf) (human, plasma, oral, 50 mg, 50 mg single dose, read-out: AUC0-inf Median): 8.29 µM·h
AUC(0-inf) (human, plasma, oral, 50 mg, 50 mg single dose, read-out: AUC0-inf gMean): 8.46 µM·h
Cmax (human, plasma, oral, 50 mg, 50 mg single dose, read-out: Cmax Mean): 1110 nM
Cmax (human, plasma, oral, 50 mg, 50 mg single dose, read-out: Cmax Median): 1100 nM
Cmax (human, plasma, oral, 50 mg, 50 mg single dose, read-out: Cmax gMean): 1080 nM
Tmax (human, plasma, oral, 50 mg, 50 mg single dose, read-out: tmax Mean): 1.75 h
Tmax (human, plasma, oral, 50 mg, 50 mg single dose, read-out: tmax Median): 1.5 h
Tmax (human, plasma, oral, 50 mg, 50 mg single dose, read-out: tmax gMean): 1.59 h
SMILES: OC[C@H]1O[C@@H](c2ccc(Cl)c(Cc3ccc(O[C@H]4CCOC4)cc3)c2)[C@H](O)[C@@H](O)[C@@H]1O [Compound (I.9), 1-chloro-4-(β-D-glucopyranos-1-yl)-2-[4-((S)-tetrahydrofuran-3-yloxy)-benzyl]-benzene]
